This note sets out measurements from patent US12678453B2, “Aerosolized formulations of HIV protease inhibitors for the treatment of airway reflux” (The Medical College of Wisconsin, Inc., priority 2020, dated 2026).

One data set has as its target T1, porcine pepsin A (Sus scrofa, UniProt P00791).
T1 construct: purchased Worthington Biochemical Corporation
The data set can be described thus: co-crystallization of inhibitors with pepsin. The class given is binding. The settings on record: crystal structures of porcine pepsin complexes. How it is done: (§1) Lyophilized porcine pepsin A (Worthington Biochemical Corporation) was dissolved in water at 200 mg/mL. All ligand stock solutions, except for saquinavir mesylate, were prepared as saturated solutions in DMSO in order to dissolve the maximal amount of ligand. The solutions were centrifuged and an appropriate volume of the supernatant was added to the pepsin solution so that final mixture contained 1.6% of the ligand stock by volume. The mixtures were incubated at room temperature for 1 h, centrifuged for 10 min at 31,000 rcf, and the supernatant was used for crystallization experiments. […] In order to maximize the solubility of saquinavir in the crystallization solution, we tested solutions from the CryoSol screen (Molecular Dimensions) (PMID 28626721). Mixture SM2 consisting of 37.5% v/v dioxane, 25% v/v DMSO, 12.5% v/v ethylene glycol, 12.5% v/v 1,2-propanediol, and 12.5% v/v glycerol allowed us to increase the amount of ligand solution in the co-crystallization mixture without damaging the protein. The saturated solution of saquinavir in SM2 was treated in the same manner as solutions of other ligands except that its amount in the solution with pepsin was increased to 5% by volume.
The initial crystallization condition was identified by screening 200 mg/mL ligand-free porcine pepsin against the Salt RX screen (Hampton Research). Small bipyramid-shaped crystals were obtained in 3.5 M ammonium chloride and 0.1 M sodium acetate trihydrate pH 4.6 after 1 week of incubation at room temperature. […] Diffraction quality crystals formed after 2-7 days from hanging drops containing 2 μL of pepsin at concentrations of 180-210 mg/mL and 1 μL of a microseed solution serially diluted 10-100× above a well solution containing 3 M-4 M ammonium chloride and 0.1 M sodium acetate trihydrate pH 4.6. The crystals were shaped as triangular bi-pyramids with dimensions approximately 200×100×100 μm. Crystals were cryoprotected by soaking them in 30% w/v glucose, 5 M ammonium chloride and 0.1 M sodium acetate trihydrate pH 4.6 and then plunging them in liquid nitrogen.
The complex with saquinavir was crystallized in the same manner except that we used 0.1 M acetic acid instead of 0.1 M sodium acetate trihydrate pH 4.6 because this change allowed us to grow large crystals without the need for a microseeding solution. Cryoprotection was accomplished using 30% w/v glucose, 3 M ammonium chloride and 0.1 M acetic acid, followed by plunging in liquid nitrogen.
Pepsin·APV: A 1.9 Å diffraction data set was collected at the Life Sciences Collaborative Access Team beamline (LS-CAT) 21-ID-F at the Advanced Photon Source (APS) equipped with a MAR 300 CCD detector using a 50×50 μm beam at a wavelength of 0.97872 Å. […]

The nature of a further data set: solubility. The settings on record: co-crystallization solution. The data set is classed as physicochemical. As for the experimental part: as §1

T1 sequence (P00791 60-385): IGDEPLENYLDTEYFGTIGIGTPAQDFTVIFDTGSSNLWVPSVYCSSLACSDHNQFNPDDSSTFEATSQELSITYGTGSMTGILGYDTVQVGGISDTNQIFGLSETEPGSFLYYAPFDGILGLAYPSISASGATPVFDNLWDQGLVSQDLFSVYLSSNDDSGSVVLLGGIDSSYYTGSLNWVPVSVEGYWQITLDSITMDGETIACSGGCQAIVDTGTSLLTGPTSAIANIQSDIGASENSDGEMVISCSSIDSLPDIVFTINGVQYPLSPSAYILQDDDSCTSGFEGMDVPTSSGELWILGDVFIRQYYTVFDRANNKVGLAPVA

As for `CC(C)(C)NC(=O)[C@@H]1C[C@@H]2CCCC[C@@H]2CN1C[C@@H](O)[C@H](Cc1ccccc1)NC(=O)[C@H](CC(N)=O)NC(=O)c1ccc2ccccc2n1` [saquinavir, (2S)—N-[(2S,3R)-4-[(3 S,4aS,8aS)-3-(tert-butylcarbamoyl)-3,4,4a,5,6,7,8,8a-octahydro-1H-isoquinolin-2-yl]-3-hydroxy-1-phenylbutan-2-yl]-2-(quinoline-2-carbonylamino)butanediamide], at porcine pepsin A, the “binding at the active site of pepsin by co-crystallization” value (shortened to “binding at the active site of pepsin”) is given as “bind at the active site of pepsin”. The solubility entry in the data set “solubility” was “low solubility”. On to `CC(C)CN(C[C@@H](O)[C@H](Cc1ccccc1)NC(=O)O[C@H]1CCOC1)S(=O)(=O)c1ccc(N)cc1` [amprenavir, [(3S)-oxolan-3-yl] N-[(2S,3R)-4-[(4-aminophenyl)sulfonyl-(2-methylpropyl)amino]-3-hydroxy-1-phenylbutan-2-yl]carbamate], for which the “binding at the active site of pepsin” value at porcine pepsin A was “bind in the pepsin active site”.

As for `CC(C)c1nc(CN(C)C(=O)N[C@H](C(=O)N[C@@H](Cc2ccccc2)C[C@H](O)[C@H](Cc2ccccc2)NC(=O)OCc2cncs2)C(C)C)cs1` [ritonavir, 1,3-thiazol-5-ylmethyl N-[(2S,3 S,5S)-3-hydroxy-5-[[(2S)-3-methyl-2-[[methyl-[(2-propan-2-yl-1,3-thiazol-4-yl)methyl]carbamoyl]amino]butanoyl]amino]-1,6-diphenylhexan-2-yl]carbamate], on porcine pepsin A, the “binding at the active site of pepsin” value is “bind at the active site of pepsin”. The same measure, in the same setting: the same measure for `CC(C)CN(C[C@@H](O)[C@H](Cc1ccccc1)NC(=O)O[C@H]1CO[C@H]2OCC[C@H]21)S(=O)(=O)c1ccc(N)cc1` [darunavir, [(3a S,4R,6aR)-2,3,3a,4,5,6a-hexahydrofuro[2,3-b]furan-4-yl] N-[(2S,3R)-4-[(4-aminophenyl)sulfonyl-(2-methylpropyl)amino]-3-hydroxy-1-phenylbutan-2-yl]carbamate]: “bind at the active site of pepsin”.
